# Source: patent publication US11339128B2 (Firmenich Incorporated, priority 2014, dated 2022)
# Tests used:
# T1R2/T1R3 taste receptor = molecular target: T1, T1R2/T1R3 taste receptor (Homo sapiens, UniProt Q7RTX0+Q8TE23); assay: Receptor-based assay: sweetener EC50 enhancement ratio with and without test compound; type: cell-based; details: for Sucrose Enhancement EC50 Ratio: sweetener sucrose; for Sucralose Enhancement EC50 Ratio: sweetener sucralose; for Fructose Enhancement EC50 Ratio: sweetener fructose
# T1 sequence (Q8TE23 20-839): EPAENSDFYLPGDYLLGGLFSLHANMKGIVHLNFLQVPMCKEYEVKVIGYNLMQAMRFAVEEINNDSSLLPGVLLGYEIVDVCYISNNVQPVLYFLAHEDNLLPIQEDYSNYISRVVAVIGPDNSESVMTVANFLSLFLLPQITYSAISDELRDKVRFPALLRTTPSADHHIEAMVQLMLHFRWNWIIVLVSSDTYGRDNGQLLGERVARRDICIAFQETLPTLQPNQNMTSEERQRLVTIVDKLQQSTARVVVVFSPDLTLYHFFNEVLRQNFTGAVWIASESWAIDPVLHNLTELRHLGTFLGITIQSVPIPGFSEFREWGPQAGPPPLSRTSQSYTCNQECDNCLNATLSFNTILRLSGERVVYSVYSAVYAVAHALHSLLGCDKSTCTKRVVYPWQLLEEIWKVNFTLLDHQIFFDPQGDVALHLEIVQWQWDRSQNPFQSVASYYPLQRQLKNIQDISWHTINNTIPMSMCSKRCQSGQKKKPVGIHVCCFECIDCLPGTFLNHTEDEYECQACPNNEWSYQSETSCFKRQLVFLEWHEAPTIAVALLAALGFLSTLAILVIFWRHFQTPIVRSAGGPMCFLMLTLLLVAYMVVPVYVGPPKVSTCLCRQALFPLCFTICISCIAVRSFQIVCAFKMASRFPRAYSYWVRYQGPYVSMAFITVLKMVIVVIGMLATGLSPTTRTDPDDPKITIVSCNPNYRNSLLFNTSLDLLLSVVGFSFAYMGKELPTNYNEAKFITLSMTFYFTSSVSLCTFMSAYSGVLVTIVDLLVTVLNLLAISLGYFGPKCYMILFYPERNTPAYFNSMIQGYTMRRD
# T1 sequence (Q7RTX0 21-852): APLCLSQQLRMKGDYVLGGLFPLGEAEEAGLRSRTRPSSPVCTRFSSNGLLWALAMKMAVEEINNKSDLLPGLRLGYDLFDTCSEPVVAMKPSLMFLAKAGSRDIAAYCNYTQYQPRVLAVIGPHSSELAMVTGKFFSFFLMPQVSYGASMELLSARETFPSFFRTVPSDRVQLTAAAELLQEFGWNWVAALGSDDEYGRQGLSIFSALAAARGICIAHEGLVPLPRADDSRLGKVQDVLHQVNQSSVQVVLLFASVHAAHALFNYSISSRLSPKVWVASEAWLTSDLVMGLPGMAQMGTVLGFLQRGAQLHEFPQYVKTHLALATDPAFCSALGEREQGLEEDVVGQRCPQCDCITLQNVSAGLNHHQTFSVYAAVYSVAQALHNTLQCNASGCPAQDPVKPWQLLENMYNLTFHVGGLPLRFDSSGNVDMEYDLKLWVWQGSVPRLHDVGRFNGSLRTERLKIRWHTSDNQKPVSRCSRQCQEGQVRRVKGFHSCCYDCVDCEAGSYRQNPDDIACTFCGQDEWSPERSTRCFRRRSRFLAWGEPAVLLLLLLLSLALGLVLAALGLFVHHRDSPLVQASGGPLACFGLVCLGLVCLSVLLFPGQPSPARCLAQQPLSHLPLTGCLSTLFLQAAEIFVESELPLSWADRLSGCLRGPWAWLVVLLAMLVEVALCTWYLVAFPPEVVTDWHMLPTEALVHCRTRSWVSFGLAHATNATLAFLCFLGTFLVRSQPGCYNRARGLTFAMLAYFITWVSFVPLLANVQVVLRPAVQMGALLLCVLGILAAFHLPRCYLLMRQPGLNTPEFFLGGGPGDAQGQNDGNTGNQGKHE
# How it was run: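 Sweetener (sucrose, sucralose, fructose) EC50 measured alone and with 1, 3, 10 or 50 μM test compound. Enhancement ratio = EC50 without/with compound; A = >1 to <10, B = 10–20, C = >20.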
# [1] = Sensory paired-comparison sweetness test of sweetener (sucrose or high-fructose corn syrup) with test compound; type: in vivo, human; details: test compound 10 ppm or less with 6% sucrose, low sodium buffer pH 7.1; sucrose-alone concentration of equivalent perceived sweetness
# Experimental: Test samples containing either a sweetener (sucrose or high-fructose corn syrup) alone or in combination with a test compound were presented in pairs to a group of panelist who were asked to determine which of the samples was sweeter. Subjects refrained from eating or drinking (except water) for at least 1 hour prior to the test. Subjects rinsed with water several times to clean the mouth. The samples within a paired comparison test were presented in a randomized, counterbalanced order. Panelists had up to a 1 minute delay between taste tests to clear the mouth of any tastes. Binomial probability tables were used to determine the probability of the correct number of responses occurring for each test at alpha-0.05.
# Stock solutions of test compounds were prepared at 1000× final concentration with ethanol to ensure dispersion in solution. Test compound samples including sucrose were prepared by diluting the stock solutions in a low sodium buffer (0.952 g of KCl, 5.444 g of Na2HPO4, and 0.952 g of KH2PO4 in deionized ultrafiltered water) at pH 7.1 and containing sucrose. Test compound samples including high fructose corn syrup were prepared by diluting the stock solutions in the low sodium buffer at pH 2.8 (using citric acid to adjust the pH) and containing high fructose corn syrup. Control samples were balanced to 0.1% ethanol final.
# In samples containing the test compound, the test compound was present at a concentration of 10 ppm or less and the concentration of sucrose was 6%. This table indicates the sucrose-alone concentration having a perceived sweetness intensity equivalent to the sweetness intensity of the combination of test compound and sucrose. An “A” value indicates an equivalent sucrose concentration greater than 6% and less than 10%. A “B” value indicates an equivalent sucrose concentration of 10% or greater. […]
SMILES,Sucrose Enhancement EC50 Ratio (T1R2/T1R3 taste receptor; 1 μM test compound),Sucrose Enhancement EC50 Ratio (T1R2/T1R3 taste receptor; 3 μM test compound),Sucrose Enhancement EC50 Ratio (T1R2/T1R3 taste receptor; 10 μM test compound),Equivalent Sucrose Conc. [1],melting point [°C],Sucralose Enhancement EC50 Ratio (T1R2/T1R3 taste receptor; 10 μM test compound),Sucralose Enhancement EC50 Ratio (T1R2/T1R3 taste receptor; 3 μM test compound),Fructose Enhancement EC50 Ratio (T1R2/T1R3 taste receptor; 10 μM test compound)
"Cc1nc2cccc(O[C@H]3CC[C@H](C)CC3)c2c(N)c1C(=O)O [Compound 100, 4-Amino-2-methyl-5-((trans-4-methylcyclohexyl)oxy)quinoline-3-carboxylic acid]",B (an enhancement ratio from 10 to 20),C (an enhancement ratio greater than 20),C (an enhancement ratio greater than 20),B (an equivalent sucrose concentration of 10% or greater),225 to 228,,,
"CCOCC(=O)N[C@H]1CC[C@H](Oc2cccc3nc(C)c(C(=O)O)c(N)c23)CC1 [Compound 300, 4-Amino-5-((trans-4-(2-ethoxyacetamido)cyclohexyl)oxy)-2-methylquinoline-3-carboxylic acid]",B (an enhancement ratio from 10 to 20),C (an enhancement ratio greater than 20),C (an enhancement ratio greater than 20),B (an equivalent sucrose concentration of 10% or greater),204 to 206,B (an enhancement ratio from 10 to 20),,
Cc1nc2cccc(O[C@H]3CC[C@H](NC(=O)COC4CCC4)CC3)c2c(N)c1C(=O)O [Compound 309],B (an enhancement ratio from 10 to 20),A (an enhancement ratio of greater than 1 and less than 10),B (an enhancement ratio from 10 to 20),B (an equivalent sucrose concentration of 10% or greater),,B (an enhancement ratio from 10 to 20),B (an enhancement ratio from 10 to 20),A (an enhancement ratio of greater than 1 and less than 10)
Cc1nc2cccc(O[C@H]3CC[C@H](NC(=O)COC4CCCC4)CC3)c2c(N)c1C(=O)O [Compound 310],C (an enhancement ratio greater than 20),,,B (an equivalent sucrose concentration of 10% or greater),,A (an enhancement ratio of greater than 1 and less than 10),B (an enhancement ratio from 10 to 20),A (an enhancement ratio of greater than 1 and less than 10)
Cc1nc2cccc(O[C@H]3CC[C@H](NC(=O)COC4CCCCC4)CC3)c2c(N)c1C(=O)O [Compound 311],B (an enhancement ratio from 10 to 20),A (an enhancement ratio of greater than 1 and less than 10),,A (an equivalent sucrose concentration greater than 6% and less than 10%),,,A (an enhancement ratio of greater than 1 and less than 10),
"Cc1nc2cccc(O[C@H]3CC[C@H](Nc4ncccn4)CC3)c2c(N)c1C(=O)O [Compound 700, 4-Amino-2-methyl-5-((trans-4-(pyrimidin-2-ylamino)cyclohexyl)oxy) quinolone-3-carboxylic acid]",A (an enhancement ratio of greater than 1 and less than 10),C (an enhancement ratio greater than 20),C (an enhancement ratio greater than 20),B (an equivalent sucrose concentration of 10% or greater),,C (an enhancement ratio greater than 20),C (an enhancement ratio greater than 20),
